Reference: patent US20250177479A1, “DEPSIPEPTIDE-BASED AMPHIPHILIC BULIDING BLOCK TO INHIBIT PROTEIN-PROTEIN INTERACTIONS, NANOSTRUCTURE COMPRISED THEREOF AND USES THEREOF” (INDUSTRY-ACADEMIC COOPERATION FOUNDATION, YONSEI UNIVERSITY, priority 2023, published 2025)

Tests used:
HCT116 p53+/+ cells = test: WST-8 cell viability assay in HCT116 p53+/+ cells; assay type: cell-based, human; conditions: 0, 5, 10, 15, 20 μM, 12 to 24 hours
Procedure: First, HCT116 p53^+/+ cells were cultured in a thermos-hygrostat incubator at 37° C., 5% CO2 in DMEM containing 10% FBS and 1% Pen-Step.
For a WST-8 cell viability assay, the HCT116 p53+/+ cells were seeded at a density of 2×10^4 cells/well in […] culture medium in a 96-well plate and cultured for 24 hours. […] After culturing at 37° C. for 12 to 24 hours, WST-8 reagent (Abcam Inc., UK) was added to each well, and culture was performed for 30 minutes. The absorbance at […] was measured using a microplate reader (PerkinElmer Inc., USA).

HCT116 cells = test: In vivo anticancer effect in HCT116 xenografted mice; conditions: 76.9 nmol/100 μl saline i.v., once every two days, five times; 14 days
Procedure: Body weight and tumor volume of each group were measured every 0, 2, 4, 6, 8, 10, 12, and 14 days.

p53 = test: Immunoblotting kinetic analysis of MDM2 and p53; assay type: cell-based, human; conditions: 10 μM; HCT116 p53+/+ cells
Procedure: The cells were harvested, washed with cold PBS, and lysed with a radio-immunoprecipitation assay (RIPA) buffer. The cell lysate was centrifuged at 4° C. and 13,000 rpm for 20 minutes, and the supernatant was collected. The protein amount of the lysate was quantified using a bicinchoninic acid (BCA) protein assay kit (Pierce Inc., USA). The supernatant of the cell lysate was loaded on 10% sodium dodecyl sulfate-polyacrylamide gel electrophoresis (SDS-PAGE) to separate proteins, which were transferred to a polyvinylidene fluoride (PVDF) membrane, and the membrane was treated with 5% skim milk in tris-buffered saline with Tween® 20 (TBS-T) buffer (room temperature), and after one hour, washed with TBS-T buffer (2×) for one minute. After treatment with primary antibodies (specific primary antibodies) (p53, MDM2, or vinculin), the membrane was incubated overnight at 4° C. The membrane was washed with TBS-T for 10 minutes (5×), treated with horseradish peroxidase (HRP)-conjugated secondary antibodies (room temperature, 1 h), and then washed with TBS-T for 10 minutes (5×) and analyzed using a LAS 3000 luminescent image analyzer (Fujifilm Co., LTD., Japan).

[1] = Biodistribution of Cy5.5-labeled SdPN in xenografted mice (fluorescence, IVIS)
Procedure: In order to verify the tumor specificity of the SdPN according to the present invention, an analysis was performed using a cancer animal model (xenograft) in which human cancer cells were cultured in immunodeficient mice. Specifically, a mixture of 50 mL of Matrigel (Corning, NY, USA) and HCT116 cells (5× 10^6 cells in 50 mL of saline) was subcutaneously injected into the hind legs of 5-week-old nu/nu male nude mice (nu/nu athymic). The tumor volume was analyzed using a caliper [tumor volume=(major axis)×(minor axis)^2/2]. […] At this time, the dose was 100 μl of saline injected at a concentration of 400 μM based on Cy5.5 (40 nmol/100 μl saline).
Fluorescence images were obtained at various times after the intravenous injection.
The isolated cancer tissues were treated with 4% paraformaldehyde, and their moisture content was assessed with sucrose.

[2] = 24 hours after i.v. administration, Cy5.5-labeled

Compound	viability of HCT116 p53+/+ cells (cancer cell apoptotic effect) (HCT116 p53+/+ cells)	cancer growth (HCT116 cells)	PPI inhibition action speed (p53)	localization to the cancer area (IVIS) ([1]; 40 nmol/100 μl saline i.v.)	removal over time (IVIS) ([1]; 40 nmol/100 μl saline i.v.)	accumulation in cancer tissues (frozen sections) [1, 2]	accumulation in major organs and cancer tissues (ex vivo fluorescence) [1, 2]	fluorescence of tail vein blood over time (in vivo retention) ([1]; after i.v. administration, Cy5.5-labeled)
COc1cc(C(=O)O)ccc1NC(=O)[C@@H]1N[C@@H](CC(C)(C)C)[C@](C#N)(c2ccc(Cl)cc2F)[C@H]1c1cccc(Cl)c1F [idasanutlin]	higher anticancer effect than that of the SdPN (6:4) of Example 8	significantly inhibited	three	–	–	–	–	–
sulfo-cyanine 5.5 [Cy5.5]	–	–	–	failed to be specifically localized to the cancer area	rapidly removed over time	no significant accumulation	significant accumulation neither in major organ tissues nor cancer tissues	completely eliminated within a short time
